Laboratory results published in US11446300B2 (Alexion Pharmaceuticals, Inc., priority 2015, dated 2022).
Read-outs that look alike come from different tables or passages of the source.

Key:
LY18 = test: DLBCL cell line viability, CellTiter Glo, ten-point curve; assay type: cell-based; conditions: read-out: IC50 of Kinase Inhibitor in Cell Titer Glo Assay
DHL4 = test: as above; assay type: cell-based; conditions: read-out: IC50 of Kinase Inhibitor in Cell Titer Glo Assay
DHL10 = test: as above; assay type: cell-based; conditions: read-out: IC50 of Kinase Inhibitor in Cell Titer Glo Assay
Source text: Each IC50 value is an average of at least four replicate experiments.

[1] = Phase I study, pharmacokinetics following oral dosing; assay type: in vivo, human; conditions: for Cmax / AUC / half-life / steady-state Cmin to Cmax range: human, plasma
Description: A first-in-human study of cerdulatinib in patients with relapsed/refractory CLL/SLL or B-cell non-Hodgkin's lymphoma (NHL) was carried out. […] Patients received a single dose on day 1 for 72 hour PK evaluation. Continuous dosing was initiated on day 4. […] Median age was 67 years (range 23-85) and median prior therapies (tx) was 3 (range 1-8).
Pharmacokinetics (“PK”), pharmacodynamics (“PD”), and safety were monitored. Response was assessed by standard criteria. The level of inhibition of SYK and JAK was determined using a variety of whole blood assays measuring signaling via receptors for the B-cell antigen, IL2, IL4, IL6, and GM-CSF. Serum markers of tumor burden, including CCL3, CCL4, and other markers of inflammation (02M and CRP), were also being measured.

[2] = system: CLL cells from ibrutinib-relapsed patients with BTK mutations (BTK^C481S, BTKT^316A); test: BrdU cell proliferation assay, combined stimulation; assay type: cell-based, human; conditions: three ibrutinib-relapsed patients
DLBCL cell lines = test: Cerdulatinib-sensitive DLBCL cell lines co-cultured with CD40L; assay type: cell-based; conditions: of 7 cerdulatinib-sensitive cell lines tested
Source text: Consistent with the loss of IκBα in RCK8, the cell line presented with enhanced basal NFκB activity. […] Associated with suppression of NFκB was decreased cellular pAKT S473 and […], but not of pSTAT3 Y705. We then attempted to knock IκBα down in cerdulatinib-sensitive cell lines using siRNA to determine if resistance to SYK/JAK inhibition could be generated. […] Ligation of CD40 leads to a transient down-regulation of IκBα at the protein level. […] The impact on NFκB activation was much longer, however, and of 7 cerdulatinib-sensitive cell lines tested, 5 were made resistant by co-culture with CD40L. Associated with this resistance was not only induction of NFκB, but also pERK Y204, pAKT S473, and pSTAT3 Y705.

[3] = 15 mg/twice daily oral, Table 2, n=28
[4] = 15 mg/twice daily, Table 3, n=43
[5] = 20 mg/twice daily oral, Table 2, n=28
[6] = 20 mg/twice daily, Table 3, n=43
[7] = 45 mg/day oral, PK outlier removed, Table 2, n=28
[8] = 45 mg/twice daily, Table 3, n=43
[9] = 100 mg/day (one patient), Table 3

CCS(=O)(=O)N1CCN(c2ccc(Nc3ncc(C(N)=O)c(NC4CC4)n3)cc2)CC1 [Cerdulatinib, 4-(cyclopropylamino)-2-(4-(4-(ethylsulfonyl)piperazin-1-yl)phenylamino)pyrimidine-5-carboxamide]
IC50 (LY18): 1000 nM
IC50 (DHL4): 1400 nM
IC50 (DHL10): 2300 nM
SS Cave ([1]; 15 mg/day oral, Table 2, n=28): 190 nM
SS Cave ([1]; 15 mg/day, Table 3, n=43): 190 nM
SS Cmin ([1]; 15 mg/day, Table 3, n=43): 120 nM
SS Cave [1, 3]: 390 nM
SS Cave [1, 4]: 390 nM
SS Cmin [1, 4]: 290 nM
SS Cave [1, 5]: 520 nM
SS Cave [1, 6]: 520 nM
SS Cmin [1, 6]: 380 nM
SS Cave ([1]; 30 mg/day oral, Table 2, n=28): 310 nM
SS Cmin ([1]; 30 mg/day oral, Table 2, n=28): 210 nM
SS Cave ([1]; 30 mg/day, Table 3, n=43): 310 nM
SS Cmin ([1]; 30 mg/day, Table 3, n=43): 210 nM
SS Cave ([1]; 40 mg/day oral, Table 2, n=28): 1140 nM
SS Cmin ([1]; 40 mg/day oral, Table 2, n=28): 870 nM
SS Cave ([1]; 40 mg/day, Table 3, n=43): 1140 nM
SS Cmin ([1]; 40 mg/day, Table 3, n=43): 870 nM
SS Cave [1, 7]: 1110 nM
SS Cmin [1, 7]: 820 nM
SS Cave ([1]; 45 mg/day, Table 3, n=43): 1110 nM
SS Cmin ([1]; 45 mg/day, Table 3, n=43): 820 nM
SS Cave [1, 8]: 1500 nM
SS Cmin [1, 8]: 1480 nM
SS Cave ([1]; 50 mg/day oral, Table 2, n=28): 1310 nM
SS Cave ([1]; 50 mg/day, Table 3, n=43): 990 nM
SS Cmin ([1]; 50 mg/day, Table 3, n=43): 790 nM
SS Cave ([1]; 65 mg/day, Table 3, n=43): 1010 nM
SS Cmin ([1]; 65 mg/day, Table 3, n=43): 760 nM
SS Cave [1, 9]: 680 nM
SS Cmin [1, 9]: 370 nM
Cmax ([1]; oral, 15 mg/day, Table 3, n=43, read-out: SS Cmax): 380 nM
Cmax ([1]; oral, 15 mg/twice daily, Table 3, n=43, read-out: SS Cmax): 530 nM
Cmax ([1]; oral, 20 mg/twice daily, Table 3, n=43, read-out: SS Cmax): 890 nM
Cmax ([1]; oral, 30 mg/day, Table 3, n=43, read-out: SS Cmax): 630 nM
Cmax ([1]; oral, 40 mg/day, Table 3, n=43, read-out: SS Cmax): 1480 nM
Cmax ([1]; oral, 45 mg, 45 mg BID, n=20, read-out: Cmax): 2160 ± 500 nM
Cmax ([1]; oral, 45 mg/day, Table 3, n=43, read-out: SS Cmax): 1690 nM
Cmax ([1]; oral, 45 mg/day, outlier removed from the group, read-out: steady state Cmax of PK outlier): 150 nM
Cmax ([1]; oral, 45 mg/twice daily, Table 3, n=43, read-out: SS Cmax): 1800 nM
Cmax ([1]; oral, 50 mg/day, Table 3, n=43, read-out: SS Cmax): 1570 nM
Cmax ([1]; oral, 65 mg/day, Table 3, n=43, read-out: SS Cmax): 1670 nM
Cmax ([1]; oral, 65 mg, read-out: steady state Cmax): ~2000 nM
Cmax ([1]; oral, 100 mg/day, 100 mg/day (one patient), Table 3, read-out: SS Cmax): 1110 nM
Cmax ([1]; oral, 40-100 mg QD doses, read-out: average steady state (SS) Cmax): 1630 ± 560 nM
AUC ([1]; oral, 15 mg/day, Table 3, n=43): 4.5 ± 0.8 µM·h
half-life ([1]; oral, 15 mg/day, Table 3, n=43, read-out: T1/2 (converted)): 11.5 h
AUC ([1]; oral, 15 mg/twice daily, Table 3, n=43): 4.7 ± 1.3 µM·h
half-life ([1]; oral, 15 mg/twice daily, Table 3, n=43, read-out: T1/2 (converted)): 11.2 h
AUC ([1]; oral, 20 mg/twice daily, Table 3, n=43): 6.2 ± 1 µM·h
half-life ([1]; oral, 20 mg/twice daily, Table 3, n=43, read-out: T1/2 (converted)): 8.4 h
AUC ([1]; oral, 30 mg/day, Table 3, n=43): 7.5 ± 3 µM·h
half-life ([1]; oral, 30 mg/day, Table 3, n=43, read-out: T1/2 (converted)): 12.3 h
AUC ([1]; oral, 40 mg/day, Table 3, n=43): 27.3 ± 0.8 µM·h
half-life ([1]; oral, 40 mg/day, Table 3, n=43, read-out: T1/2 (converted)): 32.8 h
AUC ([1]; oral, 45 mg BID, n=20): 33.3 ± 15.9 µM·h
half-life ([1]; oral, 45 mg BID, n=20, read-out: T1/2 (converted)): 27.5 ± 22.5 h
AUC ([1]; oral, 45 mg/day, Table 3, n=43): 26.6 ± 13.9 µM·h
half-life ([1]; oral, 45 mg/day, Table 3, n=43, read-out: T1/2 (converted)): 22.3 h
AUC ([1]; oral, 50 mg/day, Table 3, n=43): 23.8 ± 14.9 µM·h
half-life ([1]; oral, 50 mg/day, Table 3, n=43, read-out: T1/2 (converted)): 39 h
AUC ([1]; oral, 65 mg/day, Table 3, n=43): 24.2 ± 0.7 µM·h
half-life ([1]; oral, 65 mg/day, Table 3, n=43, read-out: T1/2 (converted)): 25.1 h
AUC ([1]; oral, 100 mg/day (one patient), Table 3): 16.3 µM·h
half-life ([1]; oral, 100 mg/day (one patient), Table 3, read-out: T1/2 (converted)): 14.4 h
half-life ([1]; oral, once daily dosing, read-out: half-life): 12 to 16 h
Cmax ([1]; po, 15 mg twice daily, 15 mg/twice daily oral, Table 2, n=28, read-out: SS Cmax): 530 nM
Cmax ([1]; po, 15 mg/day, 15 mg/day oral, Table 2, n=28, read-out: SS Cmax): 380 nM
Cmax ([1]; po, 20 mg twice daily, 20 mg/twice daily oral, Table 2, n=28, read-out: SS Cmax): 890 nM
Cmax ([1]; po, 30 mg/day, 30 mg/day oral, Table 2, n=28, read-out: SS Cmax): 630 nM
Cmax ([1]; po, 40 mg/day, 40 mg/day oral, Table 2, n=28, read-out: SS Cmax): 1480 nM
Cmax ([1]; po, 45 mg/day, 45 mg/day oral, PK outlier removed, Table 2, n=28, read-out: SS Cmax): 1690 nM
Cmax ([1]; po, 50 mg/day, 50 mg/day oral, Table 2, n=28, read-out: SS Cmax): 2070 nM
steady-state Cmin to Cmax range ([1]; po, 65 mg, Patient 1, 65 mg PO QD): 730 to 1740 nM
steady-state Cmin to Cmax range ([1]; po, Patient 2, 45 mg PO QD reduced to 30 mg): 250 to 630 nM
AUC ([1]; 15 mg/day oral, Table 2, n=28): 4.5 µM·h
half-life ([1]; 15 mg/day oral, Table 2, n=28, read-out: T1/2 (converted)): 11.5 h
AUC [1, 3]: 4.7 µM·h
half-life ([1]; 15 mg/twice daily oral, Table 2, n=28, read-out: T1/2 (converted)): 11.2 h
AUC [1, 5]: 6.2 µM·h
half-life ([1]; 20 mg/twice daily oral, Table 2, n=28, read-out: T1/2 (converted)): 8.4 h
AUC ([1]; 30 mg/day oral, Table 2, n=28): 7.5 µM·h
half-life ([1]; 30 mg/day oral, Table 2, n=28, read-out: T1/2 (converted)): 12.3 h
AUC ([1]; 40 mg/day oral, Table 2, n=28): 27.3 µM·h
half-life ([1]; 40 mg/day oral, Table 2, n=28, read-out: T1/2 (converted)): 32.8 h
AUC [1, 7]: 26.6 µM·h
half-life ([1]; 45 mg/day oral, PK outlier removed, Table 2, n=28, read-out: T1/2 (converted)): 22.3 h
AUC ([1]; 50 mg/day oral, Table 2, n=28): 31.4 µM·h
concentrations achievable in patients ([1]; in vivo): ~2200 nM
BrdU^+ cell populations [2]: almost completely blocked
cell lines made resistant by co-culture with CD40L (DLBCL cell lines): 5
